# Test results reported in patent publication US9255094B2, “Pyrido[4,3-B]indoles and methods of use” (Medivation Technologies, Inc., priority 2009, dated 2016).
# Tests used:
# [1] = biological target: human recombinant dopamine D2L receptor (Homo sapiens, UniProt P14416); experiment: Dopamine D2L radioligand binding assay ([3H]Spiperone); settings: compound at 1 μM, 0.16 nM [3H]Spiperone, CHO cells, read-out: Percent Inhibition of ligand binding, Dopamine (1μM)
# Protocol: (§1) Compounds of the invention were incubated with 0.16 nM [^3H]Spiperone for 120 min at 25° C. Non-specific binding was estimated in the presence of 10 μM Haloperidol. Receptor proteins were filtered and washed, the filters were then counted to determine [^3H]Spiperone specifically bound. Compounds were screened at 1 μM or lower, using 1% DMSO as vehicle. Biochemical assay results are presented as the percent inhibition of specific binding in Table 3.
# [2] = biological target: T1, human recombinant serotonin (5-Hydroxytryptamine) 5-HT6 receptor (Homo sapiens, UniProt P50406); experiment: Serotonin 5-HT6 radioligand binding assay ([3H]LSD); settings: compound at 0.1 μM, HeLa cells, read-out: Percent Inhibition of ligand binding, Serotonin (0.1 μM) 5-HT6
# T1 construct: expressed in transfected cells; host or cells: human HeLa cells
# T1 sequence (P50406 whole entry): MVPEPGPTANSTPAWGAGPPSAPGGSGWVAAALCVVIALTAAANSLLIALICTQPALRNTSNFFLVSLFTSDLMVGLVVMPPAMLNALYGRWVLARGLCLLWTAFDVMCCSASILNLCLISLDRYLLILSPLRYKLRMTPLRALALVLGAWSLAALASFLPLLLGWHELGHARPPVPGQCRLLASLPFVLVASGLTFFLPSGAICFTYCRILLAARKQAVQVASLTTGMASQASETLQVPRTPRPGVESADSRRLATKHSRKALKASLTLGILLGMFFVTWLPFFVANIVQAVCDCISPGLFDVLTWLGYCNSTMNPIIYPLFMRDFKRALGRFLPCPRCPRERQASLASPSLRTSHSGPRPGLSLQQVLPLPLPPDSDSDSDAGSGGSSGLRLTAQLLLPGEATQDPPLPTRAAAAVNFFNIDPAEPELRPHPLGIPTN
# Protocol: (§2) Compounds of the invention were incubated with 1.5 nM [3H]Lysergic acid diethylamide (LSD) for 120 min at 37° C. […] Receptor proteins were filtered and washed, the filters were then counted to determine [3H]LSD specifically bound. Compounds were screened at 1 μM or lower, using 1% DMSO as vehicle. Biochemical assay results are presented as the percent inhibition of specific binding in Table 4.
# [3] = biological target: T2, human recombinant serotonin (5-Hydroxytryptamine) 5-HT2C receptor (Homo sapiens, UniProt P28335); experiment: Serotonin 5-HT2C radioligand binding assay ([3H]Mesulergine); settings: compound at 0.1 μM; 1 nM [3H]Mesulergine; CHO-K1 cells; read-out: Percent Inhibition of ligand binding, Serotonin (0.1 μM) 5-HT2C
# T2 construct: expressed in transfected cells; host or cells: Chinese hamster ovary (CHO-K1) cells
# T2 sequence (P28335 33-458): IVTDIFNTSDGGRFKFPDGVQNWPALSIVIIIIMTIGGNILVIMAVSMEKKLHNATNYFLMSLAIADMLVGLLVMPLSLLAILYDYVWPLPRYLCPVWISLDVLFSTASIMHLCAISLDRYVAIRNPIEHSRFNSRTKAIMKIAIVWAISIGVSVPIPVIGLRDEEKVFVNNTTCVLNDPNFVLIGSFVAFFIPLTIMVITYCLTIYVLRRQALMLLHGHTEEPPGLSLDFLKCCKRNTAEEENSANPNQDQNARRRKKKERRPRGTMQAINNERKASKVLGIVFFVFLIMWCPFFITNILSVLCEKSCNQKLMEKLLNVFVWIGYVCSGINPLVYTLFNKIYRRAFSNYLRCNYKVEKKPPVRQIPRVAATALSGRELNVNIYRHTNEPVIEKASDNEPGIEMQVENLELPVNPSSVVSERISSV
# Protocol: as §1, with “1” for “0.16”, “[^3H]Mesulergine” for “[^3H]Spiperone”, “60” for “120”, “1” for “10”, “Mianserin.” for “Haloperidol.”, “4.” for “3.”
# [4] = biological target: human recombinant serotonin (5-Hydroxytryptamine) 5-HT7 receptor (Homo sapiens, UniProt P34969); experiment: Serotonin 5-HT7 radioligand binding assay ([3H]LSD); settings: compound at 0.1 μM; 5.5 nM [3H]LSD; CHO cells; read-out: Percent Inhibition of ligand binding, Serotonin (0.1 μM) 5-HT7
# human recombinant serotonin (5-Hydroxytryptamine) 5-HT7 receptor, sequence (P34969 whole entry): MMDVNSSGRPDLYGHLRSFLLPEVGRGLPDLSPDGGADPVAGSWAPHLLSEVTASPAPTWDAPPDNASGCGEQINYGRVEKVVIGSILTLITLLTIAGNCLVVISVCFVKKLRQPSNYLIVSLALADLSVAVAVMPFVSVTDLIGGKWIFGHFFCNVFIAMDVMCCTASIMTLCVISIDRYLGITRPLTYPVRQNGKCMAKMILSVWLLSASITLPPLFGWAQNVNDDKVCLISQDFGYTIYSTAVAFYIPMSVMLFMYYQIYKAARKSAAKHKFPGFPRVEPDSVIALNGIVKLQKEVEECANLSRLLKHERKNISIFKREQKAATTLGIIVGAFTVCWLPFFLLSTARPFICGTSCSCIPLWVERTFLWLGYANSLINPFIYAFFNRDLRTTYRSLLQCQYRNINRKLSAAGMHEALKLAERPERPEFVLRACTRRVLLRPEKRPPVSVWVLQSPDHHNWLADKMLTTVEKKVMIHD
# Protocol: as §2, with “of” for “of the”, “5.5” for “1.5”, “[^3H] Lysergic” for “[3H]Lysergic”, “2 h” for “120 min”, “25°” for “37°”, “[^3H]LSD” for “[3H]LSD”
# [5] = biological target: T3, human recombinant serotonin (5-Hydroxytryptamine) 5-HT2A receptor (Homo sapiens, UniProt P28223); experiment: Serotonin 5-HT2A radioligand binding assay ([3H]Ketanserin); settings: 0.5 nM [3H]Ketanserin, CHO-K1 cells; for inhibition at 0.1 µM: compound at 0.1 μM, read-out: Percent Inhibition of ligand binding, Serotonin (0.1 μM) 5-HT2A; for inhibition at 1 µM: compound at 1 μM, read-out: Percent Inhibition of ligand binding, Serotonin (1 μM) 5-HT2A
# T3 construct: expressed in transfected cells; host or cells: Chinese hamster ovary (CHO-K1) cells
# T3 sequence (P28223 whole entry): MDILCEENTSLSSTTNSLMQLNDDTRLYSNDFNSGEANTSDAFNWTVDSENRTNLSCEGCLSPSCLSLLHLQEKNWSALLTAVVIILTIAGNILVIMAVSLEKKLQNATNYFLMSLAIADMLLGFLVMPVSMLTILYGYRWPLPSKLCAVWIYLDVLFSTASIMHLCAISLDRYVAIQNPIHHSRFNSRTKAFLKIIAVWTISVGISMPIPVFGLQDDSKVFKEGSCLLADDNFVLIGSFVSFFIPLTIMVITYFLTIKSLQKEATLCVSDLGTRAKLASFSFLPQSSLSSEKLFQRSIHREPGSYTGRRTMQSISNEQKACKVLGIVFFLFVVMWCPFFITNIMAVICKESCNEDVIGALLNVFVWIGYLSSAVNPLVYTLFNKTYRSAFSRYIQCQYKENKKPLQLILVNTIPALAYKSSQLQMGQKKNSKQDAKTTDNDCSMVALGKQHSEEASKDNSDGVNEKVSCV
# Protocol: as §1, with “0.5” for “0.16”, “[^3H]Ketanserin” for “[^3H]Spiperone”, “60” for “120”, “1” for “10”, “Mianserin.” for “Haloperidol.”, “4.” for “3.”
# human recombinant dopamine D2L receptor, sequence (P14416 whole entry): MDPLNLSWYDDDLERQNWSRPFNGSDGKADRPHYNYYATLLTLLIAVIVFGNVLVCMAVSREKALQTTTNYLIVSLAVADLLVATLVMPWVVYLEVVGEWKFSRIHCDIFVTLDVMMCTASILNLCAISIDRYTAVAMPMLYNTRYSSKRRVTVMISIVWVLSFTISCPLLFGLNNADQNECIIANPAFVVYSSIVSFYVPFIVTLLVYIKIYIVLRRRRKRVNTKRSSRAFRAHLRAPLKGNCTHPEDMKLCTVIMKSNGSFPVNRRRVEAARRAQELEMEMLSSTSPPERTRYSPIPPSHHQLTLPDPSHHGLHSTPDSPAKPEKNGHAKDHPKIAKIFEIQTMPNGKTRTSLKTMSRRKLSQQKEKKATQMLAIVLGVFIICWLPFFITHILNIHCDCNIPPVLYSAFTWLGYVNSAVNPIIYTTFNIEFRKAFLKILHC
SMILES,inhibition at 1 µM [1],inhibition at 0.1 µM [2],inhibition at 0.1 µM [3],inhibition at 0.1 µM [4],inhibition at 0.1 µM [5],inhibition at 1 µM [5]
"CCC(O)(Cn1c2c(c3cc(C)ccc31)CN(C)CC2)c1ccncc1 (centres unmarked) [Compound 1-24, 1-(2,8-dimethyl-3,4-dihydro-1H-pyrido[4,3-b]indol-5(2H)-yl)-2-(pyridin-4-yl)butan-2-ol]",9%,10%,8%,12%,36%,–
"Cc1ccc2c(c1)c1c(n2CC(C)(O)c2ccncc2)CC(C)N(C)C1 (centres unmarked) [Compound 1-33, 2-(pyridin-4-yl)-1-(2,3,8-trimethyl-3,4-dihydro-1H-pyrido[4,3-b]indol-5(2H)-yl)propan-2-ol]",–,-1%,56%,40%,43%,–
"COc1cccc2c3c(n(CC(C)(O)c4ccncc4)c12)CCN(C)C3 (centres unmarked) [Compound 1-31, 1-(6-methoxy-2-methyl-3,4-dihydro-1H-pyrido[4,3-b]indol-5(2H)-yl)-2-(pyridin-4-yl)propan-2-ol]",–,-7%,5%,-1%,8%,–
"CC(C)c1ccc2c3c(n(CC(C)(O)c4ccncc4)c2c1)CCN(C)C3 (centres unmarked) [Compound 1-32, 1-(7-isopropyl-2-methyl-3,4-dihydro-1H-pyrido[4,3-b]indol-5(2H)-yl)-2-(pyridin-4-yl)propan-2-ol]",–,-1%,-6%,31%,-6%,–
"Cc1ccc2c(c1)c1c(n2CC(C)(O)c2ccncc2)CCN(CC(F)(F)F)C1 (centres unmarked) [Compound 1-29, 1-(8-methyl-2-(2,2,2-trifluoroethyl)-3,4-dihydro-1H-pyrido[4,3-b]indol-5(2H)-yl)-2-(pyridin-4-yl)propan-2-ol]",–,2%,3%,2%,11%,–
"CN1CCc2c(c3cc(Cl)ccc3n2CC(C)(O)c2cccnc2)C1 (centres unmarked) [Compound 1-54, 1-(8-chloro-1,2,3,4-tetrahydro-2-methylpyrido[4,3-b]indol-5-yl)-2-(pyridin-3-yl)propan-2-ol]",–,–,–,–,–,77%
"Cc1ccc2c(c1)c1c(n2CC(O)c2ccc(F)cc2)CCN(C)C1 (centres unmarked) [Compound 1-2, 2-(2,8-dimethyl-3,4-dihydro-1H-pyrido[4,3-b]indol-5(2H)-yl)-1-(4-fluorophenyl)ethanol]",–,–,–,–,–,91%
"CN1CCc2c(c3cc(F)ccc3n2CC(C)(O)c2ccncc2)C1 (centres unmarked) [Compound 1-9, 1-(8-fluoro-2-methyl-3,4-dihydro-1H-pyrido[4,3-b]indol-5(2H)-yl)-2-(pyridin-4-yl)propan-2-ol]",–,–,–,–,–,77%
"CN1CCc2c(c3ccc(Cl)cc3n2CC(C)(O)c2ccncc2)C1 (centres unmarked) [Compound 1-12, 1-(7-chloro-2-methyl-3,4-dihydro-1H-pyrido[4,3-b]indol-5(2H)-yl)-2-(pyridin-4-yl)propan-2-ol]",–,–,–,–,–,82%
"Cc1ccc2c(c1)c1c(n2CC(C)(O)c2ccncc2)CCN(C2CC2)C1 (centres unmarked) [Compound 1-30, 1-(2-cyclopropyl-8-methyl-3,4-dihydro-1H-pyrido[4,3-b]indol-5(2H)-yl)-2-(pyridin-4-yl)propan-2-ol]",–,1%,4%,6%,14%,–
